Assay results taken from US10577332B2, “Tetrazole derivatives” (Hoffmann-La Roche Inc., priority 2015, dated 2020).

Experiments:
[1] = molecular target: T1, human EAAT3 (Homo sapiens, UniProt P43005); assay: FLIPR Membrane Potential (FMP) assay; type: cell-based; settings: HEK-293 cells stably expressing human EAAT3; antagonist applied 15 min before L-glutamate at EC80; Kb by Cheng-Prusoff from IC50
T1 construct: expressed in transfected cells
T1 sequence (P43005 1-524): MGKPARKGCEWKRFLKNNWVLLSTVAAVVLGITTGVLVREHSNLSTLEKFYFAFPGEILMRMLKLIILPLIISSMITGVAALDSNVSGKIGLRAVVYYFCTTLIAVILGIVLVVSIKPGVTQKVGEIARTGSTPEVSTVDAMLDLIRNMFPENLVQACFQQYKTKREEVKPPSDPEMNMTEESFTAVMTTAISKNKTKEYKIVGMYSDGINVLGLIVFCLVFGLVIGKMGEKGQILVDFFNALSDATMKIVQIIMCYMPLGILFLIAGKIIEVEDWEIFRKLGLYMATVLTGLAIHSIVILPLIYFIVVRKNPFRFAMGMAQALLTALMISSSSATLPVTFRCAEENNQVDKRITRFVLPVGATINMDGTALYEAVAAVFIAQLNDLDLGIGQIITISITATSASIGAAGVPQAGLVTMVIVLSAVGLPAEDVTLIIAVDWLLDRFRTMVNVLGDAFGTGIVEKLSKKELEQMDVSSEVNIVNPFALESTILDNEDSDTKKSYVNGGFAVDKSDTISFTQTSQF
Summary of the method: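 HEK-293 cells stably expressing human EAAT3, loaded with membrane-potential dye 1 h at 37 °C in Krebs buffer pH 7.4. Antagonists added 15 min before L-glutamate at EC80; peak fluorescence minus basal read on FLIPR at room temperature. Kb derived from IC50 via Cheng-Prusoff.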

Q: For `CC(C)(C)NC(=O)c1cc(-c2ccc(Cl)cc2)cc(-n2cnnn2)c1` [Example 12, N-tert-Butyl-3-(4-chlorophenyl)-5-(tetrazol-1-yl)-benzamide], which Kb [1] is on record?
A: 350 nM

Q: And the melting point?
A: 199 °C

Q: Which Kb [1] does the source give for `CC(C)(NC(=O)c1cc(-c2ccc(Cl)cc2)cc(-n2nnnc2C2CC2)c1)C1CC1` [Example 81, 3-(4-Chlorophenyl)-N-(2-cyclopropylpropan-2-yl)-5-(5-cyclopropyl-tetrazol-1-yl)-benzamide] here?
A: 210 nM

Q: What about the melting point of the same molecule?
A: 95 °C

Q: Which Kb [1] does the source give for `CCC(C)(C)NC(=O)c1cc(-c2ccc(F)c(Cl)c2)cc(-n2cnnn2)c1` [Example 40, 3-(3-Chloro-4-fluorophenyl)-N-(2-methylbutan-2-yl)-5-(tetrazol-1-yl)-benzamide] here?
A: 570 nM

Q: What about the melting point of the same molecule?
A: 205 °C

Q: With `CCc1nnnn1-c1cc(C(=O)NC(C)(C)C2CC2)cc(-c2ccc(C)cc2)c1` [Example 36, N-(2-Cyclopropylpropan-2-yl)-3-(5-ethyltetrazol-1-yl)-5-(4-methylphenyl)-benzamide] as the molecule, how does the Kb [1] read?
A: 350 nM

Q: And the melting point?
A: 59.5 °C

Q: What does the source list for `Cc1nnnn1-c1cc(C(=O)NC2(C)CCS(=O)(=O)C2)cc(-c2ccc(F)cc2)c1` (racemic) [Example 87, (RS)-3-(4-Fluorophenyl)-N-(3-methyl-1,1-dioxothiolan-3-yl)-5-(5-methyltetrazol-1-yl)-benzamide]?
A: Kb [1]: 290 nM; melting point: 117 °C

Q: Which results are given for `CCC(C)(C)NC(=O)c1cc(-c2ccc(Cl)cc2)cc(-n2nnnc2C)c1` [Example 66, 3-(4-Chlorophenyl)-N-(2-methylbutan-2-yl)-5-(5-methyltetrazol-1-yl)-benzamide]?
A: Kb [1]: 170 nM; melting point: 80.5 °C

Q: Which Kb [1] does the source give for `CCC(C)(C)NC(=O)c1cc(-c2ccc(F)cc2)cc(-n2cnnn2)c1` [Example 1, 3-(4-Fluorophenyl)-N-(2-methylbutan-2-yl)-5-(tetrazol-1-yl)-benzamide] here?
A: 145 nM

Q: What about the melting point of the same molecule?
A: 200 °C

Q: For `CC(C)(C)NC(=O)c1cc(-c2ccc(Cl)cc2)cc(-n2nnnc2C(F)(F)F)c1` [Example 75, N-tert-Butyl-3-(4-chlorophenyl)-5-[5-(trifluoromethyl)-tetrazol-1-yl]-benzamide], which Kb [1] is on record?
A: 110 nM

Q: And the melting point?
A: 186 °C

Q: For `Cc1cc(-c2cc(C(=O)NC(C)(C)C3CC3)cc(-n3nnnc3C(C)(C)C)c2)ccc1F` [Example 110, 3-(5-tert-Butyltetrazol-1-yl)-N-(2-cyclopropylpropan-2-yl)-5-(4-fluoro-3-methylphenyl)-benzamide], which Kb [1] is on record?
A: 490 nM

Q: What about the melting point of the same molecule?
A: 88 °C

Q: What does the source list for `CC(C)(C#N)NC(=O)c1cc(-c2ccc(Cl)c(F)c2)cc(-n2nnnc2C(C)(C)C)c1` [Example 121, 3-(5-tert-Butyltetrazol-1-yl)-5-(4-chloro-3-fluorophenyl)-N-(2-cyanopropan-2-yl)-benzamide]?
A: Kb [1]: 210 nM; melting point: 261.5 °C

Q: What does the source list for `CC(C)(CO)NC(=O)c1cc(-c2ccc(F)cc2)cc(-n2nnnc2C2CC2)c1` [Example 71, 3-(5-Cyclopropyltetrazol-1-yl)-5-(4-fluorophenyl)-N-(1-hydroxy-2-methylpropan-2-yl)-benzamide]?
A: Kb [1]: 410 nM; melting point: 80 °C

Q: Which results are given for `CC(C)c1nnnn1-c1cc(C(=O)NC2(C)CCS(=O)(=O)C2)cc(-c2ccc(C(F)(F)F)cc2)c1` (racemic) [Example 49, (RS)—N-(3-methyl-1,1-dioxothiolan-3-yl)-3-(5-propan-2-yltetrazol-1-yl)-5-[4-(trifluoromethyl)phenyl]benzamide]?
A: Kb [1]: 330 nM; melting point: 117 °C

Q: Which Kb [1] does the source give for `CC(C)(NC(=O)c1cc(-c2ccc(F)cc2)cc(-n2cnnn2)c1)C1CC1` [Example 21, N-(2-cyclopropylpropan-2-yl)-3-(4-fluorophenyl)-5-(tetrazol-1-yl)-benzamide] here?
A: 960 nM

Q: And the melting point?
A: 193 °C

Q: Which results are given for `CC(C)(C)NC(=O)c1cc(-c2ccc(C(F)(F)F)cc2)cc(-n2cnnn2)c1` [Example 3, N-tert-Butyl-3-(tetrazol-1-yl)-5-[4-(trifluoromethyl)phenyl]-benzamide]?
A: Kb [1]: 470 nM; melting point: 108 °C

Q: Which results are given for `Cc1ccc(-c2cc(C(=O)NC3(C)CCS(=O)(=O)C3)cc(-n3nnnc3C)c2)cc1` (racemic) [Example 24, (RS)-N-(3-Methyl-1,1-dioxothiolan-3-yl)-3-(4-methylphenyl)-5-(5-methyltetrazol-1-yl)-benzamide]?
A: Kb [1]: 380 nM; melting point: 69 °C

Q: Which Kb [1] does the source give for `CCC(C)(C)NC(=O)c1cc(-c2ccc(F)cc2)cc(-n2nnnc2C(C)C)c1` [Example 60, 3-(4-Fluorophenyl)-N-(2-methylbutan-2-yl)-5-(5-propan-2-yltetrazol-1-yl)-benzamide] here?
A: 210 nM

Q: And the melting point?
A: 69 °C

Q: What does the source list for `CC1(NC(=O)c2cc(-c3ccc(F)cc3)cc(-n3cnnn3)c2)CCS(=O)(=O)C1` (racemic) [Example 4, (RS)-3-(4-Fluorophenyl)-N-(3-methyl-1,1-dioxothiolan-3-yl)-5-(tetrazol-1-yl)-benzamide]?
A: Kb [1]: 460 nM; melting point: 146.5 °C

Q: Which Kb [1] does the source give for `CC1(NC(=O)c2cc(-c3ccc(Cl)cc3)cc(-n3nnnc3C3CC3)c2)CCS(=O)(=O)C1` (racemic) [Example 57, (RS)-3-(4-Chlorophenyl)-5-(5-cyclopropyltetrazol-1-yl)-N-(3-methyl-1,1-dioxothiolan-3-yl)-benzamide] here?
A: 350 nM

Q: And the melting point?
A: 126 °C

Q: For `CCC(C)(C)NC(=O)c1cc(-c2ccc(OC)cc2)cc(-n2cnnn2)c1` [Example 7, 3-(4-Methoxyphenyl)-N-(2-methylbutan-2-yl)-5-(tetrazol-1-yl)-benzamide], which Kb [1] is on record?
A: 410 nM

Q: What about the melting point of the same molecule?
A: 150 °C

Q: Which Kb [1] does the source give for `CC(C)(C#N)NC(=O)c1cc(-c2ccc(C(F)(F)F)cc2)cc(-n2nnnc2C(C)(C)C)c1` [Example 120, 3-(5-tert-Butyltetrazol-1-yl)-N-(2-cyanopropan-2-yl)-5-[4-(trifluoromethyl)-phenyl]benzamide] here?
A: 300 nM

Q: What about the melting point of the same molecule?
A: 276.5 °C

Q: Which Kb [1] does the source give for `CCc1nnnn1-c1cc(C(=O)NC(C)(C)C(F)(F)F)cc(-c2ccc(C)cc2)c1` [Example 26, 3-(5-Ethyltetrazol-1-yl)-5-(4-methylphenyl)-N-(1,1,1-trifluoro-2-methylpropan-2-yl)-benzamide] here?
A: 300 nM

Q: And the melting point?
A: 78 °C

Q: Which Kb [1] does the source give for `CC1(NC(=O)c2cc(-c3ccc(Cl)cc3)cc(-n3cnnn3)c2)CCS(=O)(=O)C1` (racemic) [Example 16, (RS)-3-(4-Chlorophenyl)-N-(3-methyl-1,1-dioxothiolan-3-yl)-5-(tetrazol-1-yl)-benzamide] here?
A: 630 nM

Q: What about the melting point of the same molecule?
A: 204 °C

Q: Which results are given for `CC(C)(C)NC(=O)c1cc(-c2ccc(Cl)cc2)cc(-n2nnnc2C(C)(C)C)c1` [Example 91, N-tert-Butyl-3-(5-tert-butyltetrazol-1-yl)-5-(4-chlorophenyl)-benzamide]?
A: Kb [1]: 87 nM; melting point: 230.5 °C

Q: With `Cc1nnnn1-c1cc(C(=O)NC(C)(C)C(F)(F)F)cc(-c2ccc(Cl)cc2)c1` [Example 70, 3-(4-Chlorophenyl)-5-(5-methyltetrazol-1-yl)-N-(1,1,1-trifluoro-2-methylpropan-2-yl)-benzamide] as the molecule, how does the Kb [1] read?
A: 230 nM

Q: What about the melting point of the same molecule?
A: 96 °C

Q: With `CCC(C)(C)NC(=O)c1cc(-c2ccc(Cl)cc2)cc(-n2nnnc2C(C)(C)C)c1` [Example 90, 3-(5-tert-Butyltetrazol-1-yl)-5-(4-chlorophenyl)-N-(2-methylbutan-2-yl)-benzamide] as the molecule, how does the Kb [1] read?
A: 170 nM

Q: And the melting point?
A: 119 °C

Q: With `CC(C)c1nnnn1-c1cc(C(=O)NC(C)(C)C)cc(-c2ccc(F)cc2)c1` [Example 61, N-tert-Butyl-3-(4-fluorophenyl)-5-(5-propan-2-yltetrazol-1-yl)-benzamide] as the molecule, how does the Kb [1] read?
A: 230 nM

Q: What about the melting point of the same molecule?
A: 85 °C

Q: Which Kb [1] does the source give for `CC(C)c1nnnn1-c1cc(C(=O)NC2(C)CCS(=O)(=O)C2)cc(-c2ccc(F)cc2)c1` (racemic) [Example 63, (RS)-3-(4-Fluorophenyl)-N-(3-methyl-1,1-dioxothiolan-3-yl)-5-(5-propan-2-yltetrazol-1-yl)-benzamide] here?
A: 650 nM

Q: And the melting point?
A: 112.5 °C
